Where only a bound is given, the exact number is not on record here.

For 35 compounds, IC50 results are on record in patent US20160083391A1, “TRICYCLIC PIPERAZINE DERIVATIVE” (Sunovion Pharmaceuticals Inc., priority 2014, published 2016).

For this assay, the system named is PDE1. As to the kind of experiment: In vitro HTRF PDE1 inhibition assay. The following applies: HTRF cGMP assay, 100 nM cyclic GMP, PDE (1A3, 1B or 1C) with calmodulin, 45 minutes at 37° C.; isoform of the tabulated values not stated. The class given is biochemical. The essentials: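 Activities are given as IC50 bands (<1, 1-10, >10 μM) derived from a 665/615 nm time-resolved FRET readout after d2-cGMP/anti-cGMP cryptate detection. Enzymes PDE1A3, 1B or 1C plus calmodulin were incubated 45 min at 37 °C with 100 nM cGMP, 1% DMSO, CaCl2/MgCl2 Tris buffer pH 7.4.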

As to `COc1ccccc1CN1CCn2c(nc3c(cnn3CC(C)C)c2=O)C1` [Compound I-77, 1-Isobutyl-8-(2-methoxybenzyl)-6,7,8,9-tetrahydropyrazino[1,2-a]pyrazolo[3,4-d]pyrimidin-4(1H)-one], the IC50 was in the range of 1 to 10 µM. In the case of `COc1ccccc1CN1CCn2c(nc3c(cnn3C3CCCC3)c2=O)C1` [Compound I-78, 1-Cyclopentyl-8-(2-methoxybenzyl)-6,7,8,9-tetrahydropyrazino[1,2-a]pyrazolo[3,4-d]pyrimidin-4(1H)-one] it was less than 1 µM; in that of `COc1cccc(CN2CCn3c(nc4c(cnn4C(C)C)c3=O)C2)c1` [Compound I-79, 1-Isopropyl-8-(3-methoxybenzyl)-6,7,8,9-tetrahydropyrazino[1,2-a]pyrazolo[3,4-d]pyrimidin-4(1H)-one], 1 to 10 µM; in that of `COc1cccc(CN2CCn3c(nc4c(cnn4CC(C)C)c3=O)C2)c1` [Compound I-80, 1-Isobutyl-8-(3-methoxybenzyl)-6,7,8,9-tetrahydropyrazino[1,2-a]pyrazolo[3,4-d]pyrimidin-4(1H)-one], 1 to 10 µM. In the case of `COc1cccc(CN2CCn3c(nc4c(cnn4C4CCCC4)c3=O)C2)c1` [Compound I-81, 1-Cyclopentyl-8-(3-methoxybenzyl)-6,7,8,9-tetrahydropyrazino[1,2-a]pyrazolo[3,4-d]pyrimidin-4(1H)-one] it was less than 1 µM; in that of `COc1ccc(CN2CCn3c(nc4c(cnn4C(C)C)c3=O)C2)cc1` [Compound I-82, 1-Isopropyl-8-(4-methoxybenzyl)-6,7,8,9-tetrahydropyrazino[1,2-a]pyrazolo[3,4-d]pyrimidin-4(1H)-one], less than 1 µM; in that of `COc1ccc(CN2CCn3c(nc4c(cnn4CC(C)C)c3=O)C2)cc1` [Compound I-83, 1-Isobutyl-8-(4-methoxybenzyl)-6,7,8,9-tetrahydropyrazino[1,2-a]pyrazolo[3,4-d]pyrimidin-4(1H)-one], less than 1 µM. Then `COc1ccc(CN2CCn3c(nc4c(cnn4C4CCCC4)c3=O)C2)cc1` [Compound I-84, 1-Cyclopentyl-8-(4-methoxybenzyl)-6,7,8,9-tetrahydropyrazino[1,2-a]pyrazolo[3,4-d]pyrimidin-4(1H)-one], with less than 1 µM; and `CC(C)n1ncc2c(=O)n3c(nc21)CN(c1ccccc1Cl)CC3` [Compound I-85, 8-(2-Chlorophenyl)-1-isopropyl-6,7,8,9-tetrahydropyrazino[1,2-a]pyrazolo[3,4-d]pyrimidin-4(1H)-one], with 1 to 10 µM; and `CC(C)Cn1ncc2c(=O)n3c(nc21)CN(c1ccccc1Cl)CC3` [Compound I-86, 8-(2-Chlorophenyl)-1-isobutyl-6,7,8,9-tetrahydropyrazino[1,2-a]pyrazolo[3,4-d]pyrimidin-4(1H)-one], with 1 to 10 µM.

`O=c1c2cnn(C3CCCC3)c2nc2n1CCN(c1ccccc1Cl)C2` [Compound I-87, 8-(2-Chlorophenyl)-1-cyclopentyl-6,7,8,9-tetrahydropyrazino[1,2-a]pyrazolo[3,4-d]pyrimidin-4(1H)-one] returned an IC50 of 1 to 10 µM. `CC(C)n1ncc2c(=O)n3c(nc21)CN(c1cccc(Cl)c1)CC3` [Compound I-88, 8-(3-Chlorophenyl)-1-isopropyl-6,7,8,9-tetrahydropyrazino[1,2-a]pyrazolo[3,4-d]pyrimidin-4(1H)-one]: the IC50 is less than 1 µM. Take `CC(C)Cn1ncc2c(=O)n3c(nc21)CN(c1cccc(Cl)c1)CC3` [Compound I-89, 8-(3-Chlorophenyl)-1-isobutyl-6,7,8,9-tetrahydropyrazino[1,2-a]pyrazolo[3,4-d]pyrimidin-4(1H)-one]: the IC50 was less than 1 µM. Then `O=c1c2cnn(C3CCCC3)c2nc2n1CCN(c1cccc(Cl)c1)C2` [Compound I-90, 8-(3-Chlorophenyl)-1-cyclopentyl-6,7,8,9-tetrahydropyrazino[1,2-a]pyrazolo[3,4-d]pyrimidin-4(1H)-one], with 1 to 10 µM; and `CC(C)n1ncc2c(=O)n3c(nc21)CN(c1ccc(Cl)cc1)CC3` [Compound I-91, 8-(4-Chlorophenyl)-1-isopropyl-6,7,8,9-tetrahydropyrazino[1,2-a]pyrazolo[3,4-d]pyrimidin-4(1H)-one], with less than 1 µM.

`CC(C)Cn1ncc2c(=O)n3c(nc21)CN(c1ccc(Cl)cc1)CC3` [Compound I-92, 8-(4-Chlorophenyl)-1-isobutyl-6,7,8,9-tetrahydropyrazino[1,2-a]pyrazolo[3,4-d]pyrimidin-4(1H)-one] showed an IC50 of less than 1 µM. In the case of `O=c1c2cnn(C3CCCC3)c2nc2n1CCN(c1ccc(Cl)cc1)C2` [Compound I-93, 8-(4-Chlorophenyl)-1-cyclopentyl-6,7,8,9-tetrahydropyrazino[1,2-a]pyrazolo[3,4-d]pyrimidin-4(1H)-one] it was less than 1 µM; in that of `COc1ccccc1N1CCn2c(nc3c(cnn3C(C)C)c2=O)C1` [Compound I-94, 1-Isopropyl-8-(2-methoxyphenyl)-6,7,8,9-tetrahydropyrazino[1,2-a]pyrazolo[3,4-d]pyrimidin-4(1H)-one], 1 to 10 µM.

Compound `O=c1c2cnn(C3CCCC3)c2nc2n1CCN(c1ccccc1)C2` [Compound I-95, 1-Cyclopentyl-8-phenyl-6,7,8,9-tetrahydropyrazino[1,2-a]pyrazolo[3,4-d]pyrimidin-4(1H)-one] returned an IC50 of less than 1 µM. In turn, `COc1ccccc1N1CCn2c(nc3c(cnn3C3CCCC3)c2=O)C1` [Compound I-96, 1-Cyclopentyl-8-(2-methoxyphenyl)-6,7,8,9-tetrahydropyrazino[1,2-a]pyrazolo[3,4-d]pyrimidin-4(1H)-one] gave an IC50 of 1 to 10 µM. For the compound `COc1cccc(N2CCn3c(nc4c(cnn4C(C)C)c3=O)C2)c1` [Compound I-97, 1-Isopropyl-8-(3-methoxyphenyl)-6,7,8,9-tetrahydropyrazino[1,2-a]pyrazolo[3,4-d]pyrimidin-4(1H)-one], the IC50 was less than 1 µM. `COc1cccc(N2CCn3c(nc4c(cnn4C4CCCC4)c3=O)C2)c1` [Compound I-98, 1-Cyclopentyl-8-(3-methoxyphenyl)-6,7,8,9-tetrahydropyrazino[1,2-a]pyrazolo[3,4-d]pyrimidin-4(1H)-one] had an IC50 of less than 1 µM. Then `Cc1nn(C2CCCC2)c2nc3n(c(=O)c12)CCN(Cc1ccc(Cl)cc1)C3` [Compound I-111, 8-(4-Chlorobenzyl)-1-cyclopentyl-3-methyl-6,7,8,9-tetrahydropyrazino[1,2-d]pyrazolo[3,4-d]pyrimidin-4(1H)-one], with more than 10 µM; and `COc1ccc(CN2CCn3c(nc4c(c(C)nn4C4CCCC4)c3=O)C2)cc1` [Compound I-112, 1-Cyclopentyl-8-(4-methoxybenzyl)-3-methyl-6,7,8,9-tetrahydropyrazino[1,2-d]pyrazolo[3,4-d]pyrimidin-4(1H)-one], with more than 10 µM; and `O=C(c1ccc(Cl)cc1)N1CCn2c(nc3c(cnn3C3CCCC3)c2=O)C1` [Compound I-115, 8-(4-Chlorobenzoyl)-1-cyclopentyl-6,7,8,9-tetrahydropyrazino[1,2-a]pyrazolo[3,4-d]pyrimidin-4(1H)-one], with 1 to 10 µM. In the case of `COc1ccc(C(=O)N2CCn3c(nc4c(cnn4C4CCCC4)c3=O)C2)cc1` [Compound I-116, 1-Cyclopentyl-8-(4-methoxybenzoyl)-6,7,8,9-tetrahydropyrazino[1,2-a]pyrazolo[3,4-d]pyrimidin-4(1H)-one] it was less than 1 µM; in that of `COc1ccc(CN2CCn3c(nc4c(C5CCCC5)n[nH]c4c3=O)C2)cc1` [Compound I-123, 3-Cyclopentyl-6-(4-methoxybenzyl)-5,6,7,8-tetrahydropyrazino[1,2-a]pyrazolo[4,3-d]pyrimidin-10(1H)-one], more than 10 µM. In the case of `O=c1c2[nH]nc(C3CCCC3)c2nc2n1CCN(Cc1ccc(Cl)cc1)C2` [Compound I-124, 6-(4-Chlorobenzyl)-3-cyclopentyl-5,6,7,8-tetrahydropyrazino[1,2-a]pyrazolo[4,3-d]pyrimidin-10(1H)-one] it was 1 to 10 µM.

Compound `COc1ccc(CN2CCn3c(nc4c(ncn4C4CCCC4)c3=O)C2)cc1` [Compound I-125, 3-Cyclopentyl-6-(4-methoxybenzyl)-5,6,7,8-tetrahydropyrazino[1,2-a]purin-10(3H)-one] registered an IC50 of more than 10 µM. Then `O=c1c2ncn(C3CCCC3)c2nc2n1CCN(Cc1ccc(Cl)cc1)C2` [Compound I-126, 6-(4-Chlorobenzyl)-3-cyclopentyl-5,6,7,8-tetrahydropyrazino[1,2-a]purin-10(3H)-one], with more than 10 µM; and `COc1ccc(CN2CCn3c(nc4c(nnn4C4CCCC4)c3=O)C2)cc1` [Compound I-127, 3-Cyclopentyl-6-(4-methoxybenzyl)-5,6,7,8-tetrahydropyrazino[1,2-a][1,2,3]triazolo[4,5-d]pyrimidin-10(3H)-one], with more than 10 µM; and `O=c1c2nnn(C3CCCC3)c2nc2n1CCN(Cc1ccc(Cl)cc1)C2` [Compound I-128, 6-(4-Chlorobenzyl)-3-cyclopentyl-5,6,7,8-tetrahydropyrazino[1,2-a][1,2,3]triazolo[4,5-d]pyrimidin-10(3H)-one], with more than 10 µM.

The compound `COc1ccc(CN2CCn3c(nc4c(C5CCCC5)noc4c3=O)C2)cc1` [Compound I-129, 3-Cyclopentyl-6-(4-methoxybenzyl)-7,8-dihydro-5H-isoxazolo[4,5-d]pyrazino[1,2-a]pyrimidin-10(6H)-one] came in with an IC50 of 1 to 10 µM. In the case of `O=c1c2onc(C3CCCC3)c2nc2n1CCN(Cc1ccc(Cl)cc1)C2` [Compound I-130, 6-(4-Chlorobenzyl)-3-cyclopentyl-7,8-dihydro-5H-isoxazolo[4,5-d]pyrazino[1,2-a]pyrimidin-10(6H)-one] it was 1 to 10 µM; in that of `COc1ccc(CN2CCn3c(nn4c(C5CCCC5)nnc4c3=O)C2)cc1` [Compound I-131, 3-Cyclopentyl-7-(4-methoxybenzyl)-8,9-dihydro-6H-pyrazino[2,1-c][1,2,4]triazolo[3,4-f][1,2,4]triazin-11(7H)-one], less than 1 µM.
